From US20250340572A1, “COMPOSITIONS USEFUL FOR MODULATING SPLICING” (Skyhawk Therapeutics, Inc., priority 2022, published 2025)

Tests used:
total ATXN3 protein = experiment: ATXN3 total protein assay (MSD); assay type: cell-based; conditions: Homo sapiens, SK-N-MC cells, 48 h incubation
Description: Human neuroblastoma SK-N-MC cells were seeded at 10,000 cells/well in 384 well plates one day prior to compound treatment. The concentrations of compounds were tested at appropriate doses ranging from 30 μM to 0.6 nM. After incubation for 48 hours, the cells were lysed with 25 μL of lysis buffer containing protease inhibitors, and total ATXN3 protein levels were assessed by Mesoscale Discovery (MSD) assay developed with one pair of anti-ATXN3 antibodies. The capture and detect antibodies were raised in mouse and rabbit respectively. Anti-rabbit MSD-ST antibody was used for secondary antibody.
ATXN3 recombinant protein was used for standards. The readouts were captured with 35 μL of MSD read buffer and multi-array 384-well high binding plates.

[1] = tested on: ATXN3 transcripts containing exon 4 (E4E5); experiment: ATXN3 quantitative splicing assay (qPCR, E4E5 primers/probe); assay type: cell-based; conditions: Homo sapiens; SK-N-MC cells, 24 h treatment, qPCR of exon 4 containing transcripts
Description: Human neuroblastoma SK-N-MC cells were plated in 384-well plates at 20,000 cells/well. Twenty-four hours after plating, cells were treated with compounds for 24 h at appropriate concentrations ranging from 30 μM to 0.6 nM (0.300 DMSO). Treated cells were lysed in 15 μL of lysis buffer, and cDNA was synthesized using the Fast Advanced Cells-to-Ct kit. Two μL of each cDNA was used in qPCR reactions to confirm the exon 4 skipped transcripts of ATXN3. A second set of primers/probe E4E5 was used to detect the transcripts containing exon 4. The third set of primers/probe E8E9 was used to detect total gene level of ATXN3. The qPCR reactions were prepared in 384-well plates in 10 μL volume, using TaqMan™ Fast Advanced Master Mix with primers and probes shown in the table below. Reactions were run in a Quant Studio 6 qPCR instrument with default settings.
The primers and probes are listed below in Table 5.

IC50 (total ATXN3 protein)	IC50 [1]	Structure (SMILES)
101 to 500 nM	101 to 500 nM	CC#Cc1c(C[C@@H](N)[C@H](C)F)sc2c(NCc3cccs3)snc12 [Compound 23, 7-[(2R,3S)-2-amino-3-fluorobutyl]-8-(1-propynyl)-4-thenylamino-3,6-dithia-2-azabicyclo[3.3.0]octa-1,4,7-triene]
501 to 5000 nM	501 to 5000 nM	CC#Cc1c(C[C@@H](N)CC2CC2)sc2c(NCc3cccs3)snc12 [Compound 29, 7-[(S)-2-amino-3-cyclopropylpropyl]-8-(1-propynyl)-4-thenylamino-3,6-dithia-2-azabicyclo[3.3.0]octa-1,4,7-triene]
501 to 5000 nM	501 to 5000 nM	CC#Cc1c(C[C@@H](N)C(F)F)sc2c(NCc3ccco3)snc12 [Compound 36, 7-[(R)-2-amino-3,3-difluoropropyl]-4-(furfurylamino)-8-(1-propynyl)-3,6-dithia-2-azabicyclo[3.3.0]octa-1,4,7-triene]
501 to 5000 nM	501 to 5000 nM	CC#Cc1c(C(F)(F)[C@H](C)N)sc2c(NCc3cccs3)snc12 [Compound 28, 7-[(S)-2-amino-1,1-difluoropropyl]-8-(1-propynyl)-4-thenylamino-3,6-dithia-2-azabicyclo[3.3.0]octa-1,4,7-triene]
501 to 5000 nM	501 to 5000 nM	CC#Cc1c(C[C@@H](N)COC)sc2c(NCc3cccs3)snc12 [Compound 26, 7-[(R)-2-amino-3-methoxypropyl]-8-(1-propynyl)-4-thenylamino-3,6-dithia-2-azabicyclo[3.3.0]octa-1,4,7-triene]
501 to 5000 nM	501 to 5000 nM	CC#Cc1c(C[C@@H](N)[C@H](C)F)sc2c(NCc3ccccc3)snc12 [Compound 21, 7-[(2R,3S)-2-amino-3-fluorobutyl]-4-benzylamino-8-(1-propynyl)-3,6-dithia-2-azabicyclo[3.3.0]octa-1,4,7-triene]
101 to 500 nM	101 to 500 nM	CCC#Cc1c(C[C@@H](N)[C@H](C)F)sc2c(NCc3cccs3)snc12 [Compound 20, 7-[(2R,3S)-2-amino-3-fluorobutyl]-8-(1-butynyl)-4-thenylamino-3,6-dithia-2-azabicyclo[3.3.0]octa-1,4,7-triene]
101 to 500 nM	101 to 500 nM	CC#Cc1c(C[C@@H](N)CC2CC2)sc2c(NCc3ccco3)snc12 [Compound 30, 7-[(S)-2-amino-3-cyclopropylpropyl]-4-(furfurylamino)-8-(1-propynyl)-3,6-dithia-2-azabicyclo[3.3.0]octa-1,4,7-triene]
101 to 500 nM	0.01 to 100 nM	CC#Cc1c(C[C@@H](N)CO)sc2c(NCc3cccs3)snc12 [Compound 8, (R)-2-amino-3-{8-(1-propynyl)-4-thenylamino-3,6-dithia-2-azabicyclo[3.3.0]octa-1,4,7-trien-7-yl}-1-propanol]
0.01 to 100 nM	0.01 to 100 nM	CC#Cc1c(C[C@@H](N)[C@H](C)F)sc2c(NCc3ccco3)snc12 [Compound 22, 7-[(2R,3S)-2-amino-3-fluorobutyl]-4-(furfurylamino)-8-(1-propynyl)-3,6-dithia-2-azabicyclo[3.3.0]octa-1,4,7-triene]
5000 to 10000 nM	10000 to 40000 nM	CC#Cc1c(C[C@@H](N)COC)sc2c(NCc3ccccc3)snc12 [Compound 24, 7-[(R)-2-amino-3-methoxypropyl]-4-benzylamino-8-(1-propynyl)-3,6-dithia-2-azabicyclo[3.3.0]octa-1,4,7-triene]
5000 to 10000 nM	501 to 5000 nM	CC#Cc1c(C[C@@H](N)C(F)F)sc2c(NCc3cccs3)snc12 [Compound 37, 7-[(R)-2-amino-3,3-difluoropropyl]-8-(1-propynyl)-4-thenylamino-3,6-dithia-2-azabicyclo[3.3.0]octa-1,4,7-triene]
0.01 to 100 nM	0.01 to 100 nM	CC#Cc1c(C[C@@H](N)CO)sc2c(NCc3ccco3)snc12 [Compound 9, (R)-2-amino-3-{4-(furfurylamino)-8-(1-propynyl)-3,6-dithia-2-azabicyclo[3.3.0]octa-1,4,7-trien-7-yl}-1-propanol]
501 to 5000 nM	101 to 500 nM	CC#Cc1c(C[C@@H](N)COC)sc2c(NCc3ccco3)snc12 [Compound 25, 7-[(R)-2-amino-3-methoxypropyl]-4-(furfurylamino)-8-(1-propynyl)-3,6-dithia-2-azabicyclo[3.3.0]octa-1,4,7-triene]

Structure (SMILES)	IC50 (total ATXN3 protein)	IC50 [1]
C[C@H](N)Cc1sc2c(NCc3cccs3)snc2c1C#CCO [Compound 27, 3-{7-[(S)-2-aminopropyl]-4-thenylamino-3,6-dithia-2-azabicyclo[3.3.0]octa-1,4,7-trien-8-yl}-2-propyn-1-ol]	501 to 5000 nM	501 to 5000 nM
CCC#Cc1c(C[C@H](C)N)sc2c(NCc3cccs3)snc12 [Compound 16, 7-[(S)-2-aminopropyl]-8-(1-butynyl)-4-thenylamino-3,6-dithia-2-azabicyclo[3.3.0]octa-1,4,7-triene]	501 to 5000 nM	501 to 5000 nM
C[C@H](N)Cc1sc2c(NCc3ccco3)snc2c1C#CC1CC1 [Compound 7, 7-[(S)-2-aminopropyl]-8-(2-cyclopropylethynyl)-4-(furfurylamino)-3,6-dithia-2-azabicyclo[3.3.0]octa-1,4,7-triene]	501 to 5000 nM	101 to 500 nM
C[C@H](N)Cc1sc2c(NCc3cccs3)snc2c1C#CC1CC1 [Compound 6, 7-[(S)-2-aminopropyl]-8-(2-cyclopropylethynyl)-4-thenylamino-3,6-dithia-2-azabicyclo[3.3.0]octa-1,4,7-triene]	501 to 5000 nM	101 to 500 nM
CC#Cc1c(C[C@H](C)N)sc2c(NCc3ccco3)snc12 [Compound 10, 7-[(S)-2-aminopropyl]-4-(furfurylamino)-8-(1-propynyl)-3,6-dithia-2-azabicyclo[3.3.0]octa-1,4,7-triene]	101 to 500 nM	101 to 500 nM
CC(C)C#Cc1c(C[C@H](C)N)sc2c(NCc3ccco3)snc12 [Compound 5, 7-[(S)-2-aminopropyl]-4-(furfurylamino)-8-(3-methyl-1-butynyl)-3,6-dithia-2-azabicyclo[3.3.0]octa-1,4,7-triene]	501 to 5000 nM	501 to 5000 nM
CC#Cc1c(C[C@H](C)N)sc2c(NCc3cccs3)snc12 [Compound 1, 7-[(S)-2-aminopropyl]-8-(1-propynyl)-4-thenylamino-3,6-dithia-2-azabicyclo[3.3.0]octa-1,4,7-triene]	101 to 500 nM	101 to 500 nM
COCC#Cc1c(C[C@H](C)N)sc2c(NCc3cccs3)snc12 [Compound 15, 7-[(S)-2-aminopropyl]-8-(3-methoxy-1-propynyl)-4-thenylamino-3,6-dithia-2-azabicyclo[3.3.0]octa-1,4,7-triene]	10000 to 40000 nM	10000 to 40000 nM
C[C@H](N)Cc1sc2c(NCc3cccs3)snc2c1C#Cc1ccccc1 [Compound 2, 7-[(S)-2-aminopropyl]-8-(2-phenylethynyl)-4-thenylamino-3,6-dithia-2-azabicyclo[3.3.0]octa-1,4,7-triene]	501 to 5000 nM	5000 to 10000 nM
COCC#Cc1c(C[C@H](C)N)sc2c(NCc3ccco3)snc12 [Compound 11, 7-[(S)-2-aminopropyl]-4-(furfurylamino)-8-(3-methoxy-1-propynyl)-3,6-dithia-2-azabicyclo[3.3.0]octa-1,4,7-triene]	501 to 5000 nM	501 to 5000 nM
C[C@H](N)Cc1sc2c(NCc3cccs3)snc2c1C#CCF [Compound 17, 7-[(S)-2-aminopropyl]-8-(3-fluoro-1-propynyl)-4-thenylamino-3,6-dithia-2-azabicyclo[3.3.0]octa-1,4,7-triene]	501 to 5000 nM	101 to 500 nM
CC(C)C#Cc1c(C[C@H](C)N)sc2c(NCc3cccs3)snc12 [Compound 4, 7-[(S)-2-aminopropyl]-8-(3-methyl-1-butynyl)-4-thenylamino-3,6-dithia-2-azabicyclo[3.3.0]octa-1,4,7-triene]	5000 to 10000 nM	5000 to 10000 nM
